How the values were obtained:
LTB4 = LTB4 production by NHEKs in the inflammatory state (arachidonic acid + calcium ionophore), ELISA; assay type: cell-based, human; settings: arachidonic acid 1 μM + calcium ionophore A23187 2 h, compounds 50 μM, NDGA 2 μM, relative to induced control
Experimental: The study was carried out on Normal Human Epidermal Keratinocytes (NHEKs) (Lonza, CC-2507, origin: foreskin) in monolayer culture in Epilife medium (Invitrogen, M-EPI-500-A) containing the components of the Human Keratinocyte Growth Supplement (HKGS) mixture (Invitrogen, S-001-K) added separately, except hydrocortisone having anti-inflammatory properties.
The induction of LTB4 production having a very fast kinetics, the scheme was adapted. In this case, the inflammatory state was induced for 2 h by applying arachidonic acid (a.a./1 μM/ethanol) combined with calcium ionophore A23187 (2 μM/DMSO). Nordihydroguaiaretic acid (NDGA) was used as reference molecule (2 μM/ethanol).
The effect of the compounds was studied by applying them to the keratinocyte culture medium 2 h prior to induction of the inflammatory state as well as during induction (2 h for LTB4, 24 h for IL-8, PGE2, IL-6 and TNF-α).
Each condition was carried out in triplicate cultures and the supernatants were recovered at the end of the various treatments.
Quantification of the various inflammatory mediators was carried out with specific kits, based on a standard curve, according to the instructions provided by the kits' suppliers, R&D Systems and Cayman Chemical.
Before induction of the inflammatory state, the NHEKs were treated with the compounds and reference molecules for 2 h. The inflammatory state was then induced according to the conditions described in the methodology section, the culture supernatants were collected, and the various inflammatory mediators were quantified by the ELISA technique.
The effects of the compounds on LTB4 production are shown in FIG. 8 and are expressed as a percentage of the treatment with arachidonic acid (a.a.) combined with calcium ionophore A23187 set at 100%.

female Balb/c mice = assay: Imiquimod-induced psoriasis in Balb/c mice, PASI scoring; assay type: in vivo, mouse
Experimental: The study is performed on 40 female Balb/c mice, weighing roughly 18-20 g and randomized by weight into 5 groups (n=8) as function of the treatments, under controlled temperature (24±2° C.) and humidity (50±20%) conditions and with a 12-hour reversed light cycle (light from 20:00 to 08:00) (food and water ad libitum).
The compounds to be tested are as follows: • Excipial® neutral ointment (control) • PAT1657 (octyl-isochlorogenamide A) incorporated at 1.33% or 2.67% by mass in Excipial® ointment • Aldara® cream containing 5% imiquimod, an inducer of psoriasis • Dermoval® cream containing 0.05% clobetasol propionate and used for topical treatment of psoriasis (reference product)
The treatment groups are distributed as follows: • Group 1: no induction of psoriasis but cutaneous application of neutral ointment from day 1 to day 10 and treatment with Excipial® neutral ointment from day 7 to day 10 (negative control) (EP/EP); • Group 2: induction of psoriasis by cutaneous application of Aldara® cream containing imiquimod from day 1 to day 10 and treatment with Excipial® neutral ointment from day 7 to day 10 (positive control) (ALD/EP); • Group 3: induction of psoriasis by cutaneous application of Aldara® cream containing imiquimod from day 1 to day 10 and treatment with neutral ointment containing 1.33% compound PAT1657 from day 7 to day 10 (ALD/PAT1657-1.33%); • Group 4: induction of psoriasis by cutaneous application of Aldara® cream containing imiquimod from day 1 to day 10 and treatment with neutral ointment containing 2.67% compound PAT1657 from day 7 to day 10 (ALD/PAT1657-2.67%); • Group 5: induction of psoriasis by cutaneous application of Aldara® cream containing imiquimod from day 1 to day 10 and treatment with Dermoval® cream from day 7 to day 10 (ALD/Dermoval®). Induction and Maintenance of Psoriasis
To perform the induction of psoriasis, it was necessary to remove the hair from the backs of the animals by shaving and plucking to have direct access to the skin tissue. Psoriasis was induced in all mice in groups 2 to 5 by daily cutaneous application for 10 days, from day 1 to day 10, of roughly 70 mg of Aldara® cream. The cream was applied to the shaved backs of the mice with a silk brush. For the mice in group 1, daily cutaneous application of Excipial® neutral ointment was carried out under the same conditions: roughly 70 mg was applied for 10 days, from day 1 to day 10, in the morning using a silk brush.
The ointments containing compound PAT1657 at the two doses to be tested, Excipial® neutral ointment and Dermoval® cream, were administered by cutaneous applications for 4 days, from day 7 to day 10, on the backs of the mice in the psoriasis induction region. For each application, roughly 100 mg of ointment or cream was applied with a silk brush, at least 4 hours after application of Aldara® cream or Excipial® neutral ointment for induction or not of psoriasis.
The psoriasis area and severity index (PASI) was calculated daily throughout the experiment from day 1 to day 11, based on the following three parameters: • Presence of erythema, i.e. skin redness, in the psoriasis induction region, scored as follows: 0=no or no further erythema; 1=mild erythema; 2=moderate erythema; 3=severe erythema; 4=very severe erythema. • Degree of induration, i.e. skin hardening and thickening, in the psoriasis induction region, scored as follows: 0=no or no further induration; 1=mild induration; 2=moderate induration; 3=severe induration; 4=very severe induration. • Degree of desquamation, i.e. presence of plaques on the skin surface, in the psoriasis induction region, scored as follows: 0=no or no further desquamation; 1=mild desquamation; 2=moderate desquamation; 3=severe desquamation; 4=very severe desquamation.
The psoriasis area and severity index is the sum of the scores for these three parameters. […]

[1] = day 8, 1.33% in ointment, vs ALD/EP group, p=0.001
[2] = day 10, 1.33% in ointment, vs ALD/EP group, p=0.001
[3] = day 10, 2.67% in ointment, vs ALD/EP group, p=0.001
[4] = day 11, 1.33% in ointment, vs ALD/EP group, p=0.001
[5] = day 11, 2.67% in ointment, vs ALD/EP group, p=0.001

`CCCCCCCCNC(=O)[C@]1(O)C[C@@H](OC(=O)/C=C/c2ccc(O)c(O)c2)[C@@H](O)[C@H](OC(=O)/C=C/c2ccc(O)c(O)c2)C1` [PAT1657, (2E,2′E)-((1R,2S,3R,5S)-2,5-dihydroxy-5-(octylcarbamoyl)cyclohexane-1,3-diyl) bis(3-(3,4-dihydroxyphenyl)acrylate)] was tested, and the LTB4 production (LTB4) was “block/decrease, in a very highly significant manner”, the “mean psoriasis area and severity index (PASI)” value (female Balb/c mice; [1]) was “significantly lower” and the “mean score for degree of induration in the psoriasis induction region” value (shortened to “mean score for degree of induration”) (female Balb/c mice; [1]) was “significantly lower”. For the same molecule, the “mean score for presence of erythema in the psoriasis induction region” value (from here on “mean score for presence of erythema”) (female Balb/c mice; [1]) was “significantly lower”, the “mean score for degree of desquamation in the psoriasis induction region” value (“mean score for degree of desquamation” for short) (female Balb/c mice; day 8, 1.33% in ointment, vs ALD/EP group, p=0.007) was “significantly lower” and the “mean psoriasis area and severity index (PASI)” value (female Balb/c mice; day 8, 2.67% in ointment, vs ALD/EP group, p=0.001) was “significantly lower”. The “mean score for degree of induration” value (female Balb/c mice; day 8, 2.67% in ointment, vs ALD/EP group, p=0.004) was “significantly lower”, the “mean score for degree of desquamation” value (female Balb/c mice; day 8, 2.67% in ointment, vs ALD/EP group, p=0.006) was “significantly lower” and the “mean score for presence of erythema” value (female Balb/c mice; day 8, 2.67% in ointment, vs ALD/EP group, p=0.007) was “significantly lower”. The “mean psoriasis area and severity index (PASI)” value (female Balb/c mice; day 9, day 10 and day 11, 1.33% in ointment, vs ALD/EP group, p=0.001) was “significantly lower”, the “mean psoriasis area and severity index (PASI)” value (female Balb/c mice; day 9, day 10 and day 11, 2.67% in ointment, vs ALD/EP group, p=0.001) was “significantly lower” and the “mean score for degree of induration” value (female Balb/c mice; day 9, 1.33% in ointment, vs ALD/Dermoval group, p=0.015) was “significantly higher”. For the same molecule, the “mean score for degree of induration” value (female Balb/c mice; day 9, 1.33% in ointment, vs ALD/EP group, p=0.001) was “significantly lower”, the “mean score for presence of erythema” value (female Balb/c mice; day 9, 1.33% in ointment, vs ALD/EP group, p=0.002) was “significantly lower” and the “mean score for degree of induration” value (female Balb/c mice; day 9, 2.67% in ointment, vs ALD/EP group, p=0.001) was “significantly lower”. For the same molecule, the “mean score for presence of erythema” value (female Balb/c mice; day 9, 2.67% in ointment, vs ALD/EP group, p=0.002) was “significantly lower”, the “mean score for degree of desquamation” value (female Balb/c mice; day 9 and day 10, 1.33% in ointment, vs ALD/EP group, p=0.001) was “significantly lower” and the “mean score for degree of desquamation” value (female Balb/c mice; day 9 and day 10, 2.67% in ointment, vs ALD/EP group, p=0.001) was “significantly lower”. For the same molecule, the “mean score for degree of induration” value (female Balb/c mice; day 10, 1.33% in ointment, vs ALD/Dermoval group, p=0.025) was “significantly higher”, the “mean score for presence of erythema” value (female Balb/c mice; day 10, 1.33% in ointment, vs ALD/Dermoval group, p=0.037) was “significantly lower” and the “mean score for degree of induration” value (female Balb/c mice; [2]) was “significantly lower”. For the same molecule, the “mean score for presence of erythema” value (female Balb/c mice; [2]) was “significantly lower”, the “mean score for degree of induration” value (female Balb/c mice; day 10, 2.67% in ointment, vs ALD/Dermoval group, p=0.025) was “significantly higher” and the “mean score for presence of erythema” value (female Balb/c mice; day 10, 2.67% in ointment, vs ALD/Dermoval group, p=0.079) was “tendency to be significantly lower”. The “mean score for degree of induration” value (female Balb/c mice; [3]) was “significantly lower”, the “mean score for presence of erythema” value (female Balb/c mice; [3]) was “significantly lower” and the “mean score for degree of desquamation” value (female Balb/c mice; day 11, 1.33% in ointment, vs ALD/Dermoval group) was “significantly higher”. The “mean score for presence of erythema” value (female Balb/c mice; day 11, 1.33% in ointment, vs ALD/Dermoval group, p=0.001) was “significantly lower”, the “mean score for degree of induration” value (female Balb/c mice; day 11, 1.33% in ointment, vs ALD/Dermoval group, p=0.063) was “tendency to be significantly higher” and the “mean score for degree of desquamation” value (female Balb/c mice; [4]) was “significantly lower”. The “mean score for degree of induration” value (female Balb/c mice; [4]) was “significantly lower”, the “mean score for presence of erythema” value (female Balb/c mice; [4]) was “significantly lower” and the “mean score for presence of erythema” value (female Balb/c mice; day 11, 2.67% in ointment, vs ALD/Dermoval group, p=0.014) was “significantly lower”. The “mean score for degree of desquamation” value (female Balb/c mice; day 11, 2.67% in ointment, vs ALD/Dermoval group, p=0.059) was “tended to be significantly higher”, the “mean score for degree of desquamation” value (female Balb/c mice; [5]) was “significantly lower” and the “mean score for degree of induration” value (female Balb/c mice; [5]) was “significantly lower”. For the same molecule, the “mean score for presence of erythema” value (female Balb/c mice; [5]) was “significantly lower”.
